Laboratory results as given in patent publication US20060045891A1, “Density-matched suspension vehicles and pharmaceutical suspensions” (priority 2004, published 2006).

Assay: Suspension of spheres: sphere placed in the vehicle and centrifuged
Format: physicochemical
Details: Lucite sphere density 1.20 g/cc; two minutes at 1000 rpm; no calcium carbonate particles
Excerpt: Precipitated calcium carbonate particles (density 2.71 g/cc and average particle size 0.7 microns) were mixed with Vitamin E (density 0.95 g/cc) at a particle weight fraction of 0.333 (15% by volume of dense particles) to create a suspending vehicle. According to equation (1), the density of the suspending vehicle is 1.21 g/cc.
A small Delrin sphere (density 1.35 g/cc, 3/32″ diameter) was placed in a first container holding the suspending vehicle.
A Lucite sphere (density 1.20 g/cc, 3/32″ diameter) was placed in a second container holding the suspending vehicle and centrifuged at 2000 rpm for 2 minutes.
In contrast, the Lucite sphere was placed in a third container of pure Vitamin E only and centrifuged for two minutes at 1000 rpm.

Vitamin E
behaviour of Lucite sphere in the vehicle after centrifuging: sank to the bottom of the container in less than one minute
